In patent publication US20200399308A1, “COMPOUNDS AND METHODS FOR ELICITING ANTIMICROBIAL ACTIVITY” (Technion Research & Development Foundation Limited, priority 2018, published 2020):
Like-named read-outs stand apart in the source and are kept apart here.

Tests used:
[1] = test system: E. coli strains 25922, 35218, 14182, 16327, 14384; test: MIC against the 5 listed E. coli strains of Table 2 (stated together); type: cell-based, Escherichia coli; conditions: absence of Compound B
Method: (§1) Minimal inhibitory concentrations (MICs) were determined as previously described. […] MICs were determined by microdilution susceptibility testing in 96-well plates (by Nunc) using inocula of 10^5 bacteria per ml. Cell populations were evaluated by optical density measurements at 620 nm and were calibrated against a set of standards. Hundred (100) μl of a bacterial suspension were added to 100 μl of culture medium (control) or to 100 μl of culture medium containing various tested compound concentrations in 2-fold serial dilutions. Inhibition of proliferation was determined by optical density measurements at 620 nm after an incubation period of 24 hours at 37° C. Data were obtained from ≥2 independent experiments performed in duplicate.
(§2) Shown in parentheses are calculated sensitization factor, defined as antibiotic's MICs ratio (in absence vs. presence of Compound B) at specified Compound B concentration.

E. coli 25922 [2] = test: Time-kill kinetics in broth versus plasma; type: cell-based, Escherichia coli
Method: (§3) Time-kill kinetics data were determined using 100 μl of bacterial suspension (10^6 CFU/ml), which was added to […] LB containing none of or specified concentrations of the tested compound, antibiotic, and combinations thereof. After the specified exposure time points (37° C. under shaking), aliquots were formed, subjected to serial 10-fold dilutions in saline (0.85% NaCl), and plated for bacterial enumeration after additional 24 hours incubation at 37° C. Time-kill experiments in human and mouse plasma were performed as described elsewhere. The effects of drug delay were assessed in LB, except that bacteria were pre-incubated with the tested compound or antibiotic for the specified time points, centrifuged, and resuspended in fresh LB-containing antibiotic or the tested compound, respectively, and incubated for 3 hours before CFU enumeration.

E. coli strain 16327 = test: Checkerboard antibiotic MIC with Compound B; type: cell-based, Escherichia coli
Method: as §1, §2

E. coli strain 35218 = test: Checkerboard antibiotic MIC with Compound B; type: cell-based, Escherichia coli
Method: as §1, §2

E. coli strain 14384 = test: Checkerboard antibiotic MIC with Compound B; type: cell-based, Escherichia coli
Method: as §1, §2

E. coli strain 25922 = test: Checkerboard antibiotic MIC with Compound B; type: cell-based, Escherichia coli
Method: as §1, §2

E. coli strain 14182 = test: Checkerboard antibiotic MIC with Compound B; type: cell-based, Escherichia coli
Method: as §1, §2

E. coli 25922 [3] = test: Simultaneous versus delayed drug exposure assay in LB; type: cell-based, Escherichia coli
Method: as §3

[4] = Oral 20 mg/kg, published data, cited from earlier work
Escherichia coli 25922 = test: Mouse peritonitis-sepsis model; type: in vivo; conditions: neutropenic ICR mice; rifampin 20 mg/kg orally alone
Method: A mouse peritonitis-sepsis model was created as described elsewhere. Infection was obtained after intraperitoneal injection of bacteria from a logarithmic-phase culture. Infected mice were treated subcutaneously. The doses were selected to allow comparison with the reference compound and to remain below the maximum tolerated dose after double-dose administration. […] Briefly, mouse peritonitis sepsis model for in vivo studies were performed using male ICR mice ([…]) obtained from Envigo Laboratories (Rehovot, Israel). […] Infection was obtained by intraperitoneal injection of a logarithmic phase culture of E. coli 25922 (1.3±0.2×10^6 CFU permouse in 0.3 ml PBS). […] Infection control mice were injected with the PBS vehicle. Mouse survival was monitored for up to 7 days after treatment. Statistical analyses were performed by paired Student's t test, at α=0.05.

SMILES: CO[C@H]1/C=C/O[C@@]2(C)Oc3c(C)c(O)c4c(O)c(c(/C=N/N5CCN(C)CC5)c(O)c4c3C2=O)NC(=O)/C(C)=C\C=C\[C@H](C)[C@H](O)[C@@H](C)[C@@H](O)[C@@H](C)[C@H](OC(C)=O)[C@@H]1C [Rifampin, rifampin]
- antibiotic MICs in the absence of the compound, all the strains tested [1]: 8 to 16 µg/mL
- reduction of bacterial survival (E. coli 25922 [2]; LB broth, 24-hours end point, rifampin 1 μg/ml combined with Compound B 0.6 μM): more than 99%
- reduction of CFU count (E. coli 25922 [2]; human plasma, within 2 hours of exposure, rifampin 1 μg/ml with Compound B 0.6 μM): more than 3 log units
- time to accomplish the CFU reduction (more than 3 log units) (E. coli 25922 [2]; human plasma, antibiotic with Compound B 0.6 μM): ≤ 2 hours
- combined action with Compound B (E. coli 25922 [2]; mouse plasma, 24 hours end point, Compound B 10 μM with rifampin 1 μg/ml or erythromycin 3 μg/ml): expressed synergism of action
- Antibiotic MIC in the presence of Compound B (E. coli strain 16327; Compound B 0 μM): 16 mg/L
- Antibiotic MIC in the presence of Compound B (E. coli strain 16327; Compound B 2.5 μM): 0.031 mg/L
- Antibiotic MIC in the presence of Compound B (E. coli strain 16327; Compound B 5 μM): 0.004 mg/L
- Antibiotic MIC in the presence of Compound B (E. coli strain 16327; Compound B 10 μM): 0.002 mg/L
- Antibiotic MIC in the presence of Compound B (E. coli strain 35218; Compound B 0 μM): 8 mg/L
- Antibiotic MIC in the presence of Compound B (E. coli strain 35218; Compound B 5 μM): 0.016 mg/L
- Antibiotic MIC in the presence of Compound B (E. coli strain 35218; Compound B 10 μM): 0.002 mg/L
- Antibiotic MIC in the presence of Compound B (E. coli strain 14384; Compound B 0 μM): 8 mg/L
- Antibiotic MIC in the presence of Compound B (E. coli strain 14384; Compound B 2.5 μM): 0.016 mg/L
- Antibiotic MIC in the presence of Compound B (E. coli strain 14384; Compound B 5 μM): 0.008 mg/L
- Antibiotic MIC in the presence of Compound B (E. coli strain 14384; Compound B 10 μM): 0.002 mg/L
- Antibiotic MIC in the presence of Compound B (E. coli strain 25922; Compound B 0 μM): 8 to 16 mg/L
- Antibiotic MIC in the presence of Compound B (E. coli strain 25922; Compound B 0 μM, listed as rifampin): 16 mg/L
- Antibiotic MIC in the presence of Compound B (E. coli strain 25922; Compound B 2.5 μM): 0.063 mg/L
- Antibiotic MIC in the presence of Compound B (E. coli strain 25922; Compound B 5 μM): 0.004 mg/L
- Antibiotic MIC in the presence of Compound B (E. coli strain 25922; Compound B 10 μM): 0.001 mg/L
- MIC (E. coli strain 25922; Escherichia coli, read-out: rifampin's MIC value, in the presence of Compound B): 0.001 mg/L
- Antibiotic MIC in the presence of Compound B (E. coli strain 14182; Compound B 0 μM): 8 mg/L
- Antibiotic MIC in the presence of Compound B (E. coli strain 14182; Compound B 2.5 μM): 0.031 mg/L
- Antibiotic MIC in the presence of Compound B (E. coli strain 14182; Compound B 5 μM): 0.004 mg/L
- Antibiotic MIC in the presence of Compound B (E. coli strain 14182; Compound B 10 μM): 0.002 mg/L
- reduction of CFU count (E. coli 25922 [3]; 0.06 μg/ml rifampin in the presence of Compound B (10 μM), simultaneous, 3 hours in LB): ~4 log units
- effect of delayed exposure on sensitization by Compound B (E. coli 25922 [3]; Compound B 10 μM with 0.06 μg/ml rifampin or 4 μg/ml erythromycin, LB): nearly abolished the sensitization effect
- Plasma concentration ([4]; 0.5 h): 6.5 ± 4.7 µg/mL
- Plasma concentration ([4]; 1 h): 10.3 ± 0.4 µg/mL
- Plasma concentration ([4]; 2 h): 13.2 ± 4.4 µg/mL
- survival rate of infected mice (Escherichia coli 25922): zero
